Measurements from the supplement of paper PMC9663587.

Key:
[1] = compound: CCc1cnn2c(NCc3ccc[n+]([O-])c3)cc(N3CCCC[C@H]3CCO)nc12
LEE011/Ribociclib [2] = compound: T1, CN(C)C(=O)c1cc2cnc(Nc3ccc(N4CCNCC4)cn3)nc2n1C1CCCC1 [LEE011/Ribociclib]
Doxorubicin = compound: COc1cccc2c1C(=O)c1c(O)c3c(c(O)c1C2=O)C[C@@](O)(C(=O)CO)C[C@@H]3O[C@H]1C[C@H](N)[C@H](O)[C@H](C)O1 [Doxorubicin]
Pictilisib/GDC0941 = compound: CS(=O)(=O)N1CCN(Cc2cc3nc(-c4cccc5[nH]ncc45)nc(N4CCOCC4)c3s2)CC1 [Pictilisib/GDC0941]
Ceritinib/LDK378 = compound: Cc1cc(Nc2ncc(Cl)c(Nc3ccccc3S(=O)(=O)C(C)C)n2)c(OC(C)C)cc1C1CCNCC1 [Ceritinib/LDK378]
[3] = compound: Cc1nn(C)c(COc2ccc(N3CCN(S(=O)(=O)N(C)C)CC3)cc2)c1-c1cccc2c(CCCOc3cccc4ccccc34)c(C(=O)O)n(CCN3CCOCC3)c12
YKL-5-124 = compound: C=CC(=O)Nc1ccc(C(=O)Nc2[nH]nc3c2CN(C(=O)N[C@H](CN(C)C)c2ccccc2)C3(C)C)cc1 [YKL-5-124]; test: increase in dead-cell fraction, 72 h; higher = more death;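 further: breast cancer cell lines in 384-well plates, stained with Hoechst plus LIVE/DEAD far red dye and imaged, cells above an LDR intensity threshold counted dead, Hoechst-negative corpses included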
BSJ-03-123 = compound: CC(=O)c1c(C)c2cnc(Nc3ccc(N4CCN(CCOCCOCCOCCNC(=O)COc5cccc6c5C(=O)N(C5CCC(=O)NC5=O)C6=O)CC4)cn3)nc2n(C2CCCC2)c1=O [BSJ-03-123]; test: as above
[4] = compound: CC(=O)c1c(C)c2cnc(Nc3ccc(N4CCNCC4)cn3)nc2n(C2CCCC2)c1=O; test: as above
[5] = compound: CCN1CCN(Cc2ccc(Nc3ncc(F)c(-c4cc(F)c5nc(C)n(C(C)C)c5c4)n3)nc2)CC1; test: as above
Neratinib/HKI272 = compound: CCOc1cc2ncc(C#N)c(Nc3ccc(OCc4ccccn4)c(Cl)c3)c2cc1NC(=O)/C=C/CN(C)C [Neratinib/HKI272]; test: as above
[6] = compound: CCc1cnn2c(NCc3ccc[n+]([O-])c3)cc(N3CCCC[C@H]3CCO)nc12; test: as above
LEE011/Ribociclib [7] = compound: T1, LEE011/Ribociclib; test: as above
THZ531 = compound: CN(C)C/C=C/C(=O)Nc1ccc(C(=O)N2CCC[C@@H](Nc3ncc(Cl)c(-c4c[nH]c5ccccc45)n3)C2)cc1 [THZ531]; test: as above
THZ1 = compound: CN(C)C/C=C/C(=O)Nc1ccc(C(=O)Nc2cccc(Nc3ncc(Cl)c(-c4c[nH]c5ccccc45)n3)c2)cc1 [THZ1]; test: as above
Flavopiridol = compound: CN1CC[C@H](c2c(O)cc(O)c3c(=O)cc(-c4ccccc4Cl)oc23)[C@H](O)C1 [Flavopiridol]; test: as above
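Wherever GR50, 72 h is given: breast cancer and non-malignant breast epithelial cell lines, Deep Dye Drop or Dye Drop imaging, nine half-log doses, GR normalized to time-zero plates and DMSO-only controls.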

Question: What does the source list for ZR751?
Answer: GR50, 72 h [1]: 0.035 µM; GR50, 72 h (LEE011/Ribociclib [2]): 5.42 µM; GR50, 72 h (Doxorubicin): 0.0247 µM; GR50, 72 h (Pictilisib/GDC0941): 0.672 µM; GR50, 72 h (Ceritinib/LDK378): 3.79 µM; GR50, 72 h [3]: > 10 µM; increase in dead-cell fraction (YKL-5-124; 0.001 µM): 0.0021; increase in dead-cell fraction (YKL-5-124; 0.003162 µM): 0.0092; increase in dead-cell fraction (YKL-5-124; 0.01 µM): 0.0198; increase in dead-cell fraction (YKL-5-124; 0.03162 µM): 0.0185; increase in dead-cell fraction (YKL-5-124; 0.1 µM): 0.014; increase in dead-cell fraction (YKL-5-124; 0.3162 µM): 0.0125; increase in dead-cell fraction (YKL-5-124; 1 µM): 0.0157; increase in dead-cell fraction (YKL-5-124; 3.162 µM): 0.0241; increase in dead-cell fraction (YKL-5-124; 10 µM): 0.0249; increase in dead-cell fraction (BSJ-03-123; 0.001 µM): -0.0037; increase in dead-cell fraction (BSJ-03-123; 0.003162 µM): -0.0033; increase in dead-cell fraction (BSJ-03-123; 0.01 µM): -0.0001; increase in dead-cell fraction (BSJ-03-123; 0.03162 µM): -0.0011; increase in dead-cell fraction (BSJ-03-123; 0.1 µM): 0.0026; increase in dead-cell fraction (BSJ-03-123; 0.3162 µM): -0.0001; increase in dead-cell fraction (BSJ-03-123; 1 µM): 0.0048; increase in dead-cell fraction (BSJ-03-123; 3.162 µM): 0.004; increase in dead-cell fraction (BSJ-03-123; 10 µM): 0.0165; increase in dead-cell fraction ([4]; 0.0003162 µM): -0.0023; increase in dead-cell fraction ([4]; 0.001 µM): -0.0015; increase in dead-cell fraction ([4]; 0.003162 µM): -0.0035; increase in dead-cell fraction ([4]; 0.01 µM): 0.0001; increase in dead-cell fraction ([4]; 0.03162 µM): 0.002; increase in dead-cell fraction ([4]; 0.1 µM): -0.0025; increase in dead-cell fraction ([4]; 0.3162 µM): 0.0083; increase in dead-cell fraction ([4]; 1 µM): 0.008; increase in dead-cell fraction ([4]; 3.162 µM): 0.0189; increase in dead-cell fraction ([5]; 0.001 µM): 0.0013; increase in dead-cell fraction ([5]; 0.003162 µM): 0.0092; increase in dead-cell fraction ([5]; 0.01 µM): 0.0042; increase in dead-cell fraction ([5]; 0.03162 µM): 0.0075; increase in dead-cell fraction ([5]; 0.1 µM): 0.0148; increase in dead-cell fraction ([5]; 0.3162 µM): 0.021; increase in dead-cell fraction ([5]; 1 µM): 0.0189; increase in dead-cell fraction ([5]; 3.162 µM): 0.0151; increase in dead-cell fraction ([5]; 10 µM): 0.0172; increase in dead-cell fraction (Neratinib/HKI272; 0.0003162 µM): -0.0059; increase in dead-cell fraction (Neratinib/HKI272; 0.001 µM): -0.0002; increase in dead-cell fraction (Neratinib/HKI272; 0.003162 µM): -0.0001; increase in dead-cell fraction (Neratinib/HKI272; 0.01 µM): -0.0032; increase in dead-cell fraction (Neratinib/HKI272; 0.03162 µM): -0.0037; increase in dead-cell fraction (Neratinib/HKI272; 0.1 µM): -0.0037; increase in dead-cell fraction (Neratinib/HKI272; 0.3162 µM): 0; increase in dead-cell fraction (Neratinib/HKI272; 1 µM): 0.0004; increase in dead-cell fraction (Neratinib/HKI272; 3.162 µM): 0.001; increase in dead-cell fraction ([6]; 0.0001 µM): -0.0029; increase in dead-cell fraction ([6]; 0.0003162 µM): -0.0028; increase in dead-cell fraction ([6]; 0.001 µM): -0.0042; increase in dead-cell fraction ([6]; 0.003162 µM): 0.0003; increase in dead-cell fraction ([6]; 0.01 µM): -0.0059; increase in dead-cell fraction ([6]; 0.03162 µM): 0.008; increase in dead-cell fraction ([6]; 0.1 µM): 0.22; increase in dead-cell fraction ([6]; 0.3162 µM): 0.21; increase in dead-cell fraction ([6]; 1 µM): 0.202; increase in dead-cell fraction (LEE011/Ribociclib [7]; 0.001 µM): 0.001; increase in dead-cell fraction (LEE011/Ribociclib [7]; 0.003162 µM): 0.0005; increase in dead-cell fraction (LEE011/Ribociclib [7]; 0.01 µM): 0.0005; increase in dead-cell fraction (LEE011/Ribociclib [7]; 0.03162 µM): -0.0023; increase in dead-cell fraction (LEE011/Ribociclib [7]; 0.1 µM): 0.0065; increase in dead-cell fraction (LEE011/Ribociclib [7]; 0.3162 µM): 0.0036; increase in dead-cell fraction (LEE011/Ribociclib [7]; 1 µM): 0.0073; increase in dead-cell fraction (LEE011/Ribociclib [7]; 3.162 µM): 0.0082; increase in dead-cell fraction (LEE011/Ribociclib [7]; 10 µM): 0.0077; increase in dead-cell fraction (THZ531; 0.0001 µM): -0.0027; increase in dead-cell fraction (THZ531; 0.0003162 µM): 0.0028; increase in dead-cell fraction (THZ531; 0.001 µM): -0.0004; increase in dead-cell fraction (THZ531; 0.003162 µM): 0.0013; increase in dead-cell fraction (THZ531; 0.01 µM): -0.0036; increase in dead-cell fraction (THZ531; 0.03162 µM): 0.0009; increase in dead-cell fraction (THZ531; 0.1 µM): 0.0019; increase in dead-cell fraction (THZ531; 0.3162 µM): 0.0013; increase in dead-cell fraction (THZ531; 1 µM): 0.151; increase in dead-cell fraction (THZ1; 0.0001 µM): -0.0022; increase in dead-cell fraction (THZ1; 0.0003162 µM): -0.0022; increase in dead-cell fraction (THZ1; 0.001 µM): 0.0059; increase in dead-cell fraction (THZ1; 0.003162 µM): -0.0001; increase in dead-cell fraction (THZ1; 0.01 µM): 0.002; increase in dead-cell fraction (THZ1; 0.03162 µM): 0.0035; increase in dead-cell fraction (THZ1; 0.1 µM): 0.0005; increase in dead-cell fraction (THZ1; 0.3162 µM): 0.0111; increase in dead-cell fraction (THZ1; 1 µM): 0.0673; increase in dead-cell fraction (Flavopiridol; 0.0001 µM): -0.0019; increase in dead-cell fraction (Flavopiridol; 0.0003162 µM): -0.0035; increase in dead-cell fraction (Flavopiridol; 0.001 µM): 0.0015; increase in dead-cell fraction (Flavopiridol; 0.003162 µM): 0.0014; increase in dead-cell fraction (Flavopiridol; 0.01 µM): -0.0008; increase in dead-cell fraction (Flavopiridol; 0.03162 µM): -0.0022; increase in dead-cell fraction (Flavopiridol; 0.1 µM): 0.0001; increase in dead-cell fraction (Flavopiridol; 0.3162 µM): 0.0129; increase in dead-cell fraction (Flavopiridol; 1 µM): 0.144
